Earlier results in patent publication US12653831B2, “Methods for the non-toxic treatment for opioid drug withdrawal combining noribogaine and cannabinoids” (priority 2019, dated 2026).
Like-named read-outs stand apart in the source and are kept apart here.

Tests used:
[1] = high doses, various animal models
rat primary microglia = details: ATP 400 μM
CB2 receptors = CB2 receptors (Homo sapiens, UniProt P34972)
primary microglia = details: for sensitivity of the induced migration to cannabinoid receptor antagonists: with CB(1)/CB(2) antagonists
[2] = not given; remark: listed apart in the source
β-amyloid-injected mice = details: subchronic administration for 3 weeks
N13 microglial cells = details: ATP 400 μM, cultured N13 microglial cells

Chain of CB2 receptors (P34972 whole entry): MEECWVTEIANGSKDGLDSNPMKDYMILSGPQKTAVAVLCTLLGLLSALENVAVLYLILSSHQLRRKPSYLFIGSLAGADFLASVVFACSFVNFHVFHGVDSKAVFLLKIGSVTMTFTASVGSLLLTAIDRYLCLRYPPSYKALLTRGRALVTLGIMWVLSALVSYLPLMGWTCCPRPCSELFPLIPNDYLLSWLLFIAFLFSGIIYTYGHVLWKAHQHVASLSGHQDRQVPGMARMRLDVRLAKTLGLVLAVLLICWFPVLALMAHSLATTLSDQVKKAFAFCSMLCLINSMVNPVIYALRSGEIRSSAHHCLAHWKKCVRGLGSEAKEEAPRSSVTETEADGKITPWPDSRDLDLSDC

| SMILES | adverse effects in preclinical toxicity studies [1] | effect on EKG QTc interval (dose of 30 mg daily) | effect on EKG QTc interval (higher doses (above 60 mg/day)) | effect on ATP-induced increase in intracellular calcium ([Ca(2+)](i)) (rat primary microglia) | binding to CB2 receptors (CB2 receptors) | effect on primary microglia migration (primary microglia) | sensitivity of the induced migration to cannabinoid receptor antagonists (primary microglia) | tolerability ([2]; in humans) | psychoactive or cognitive effects ([2]; in vivo) | cytokine gene expression (β-amyloid-injected mice) | learning of a spatial navigation task (β-amyloid-injected mice) | effect on ATP-induced increase in intracellular calcium ([Ca(2+)](i)) (N13 microglial cells) |
| --- | --- | --- | --- | --- | --- | --- | --- | --- | --- | --- | --- | --- |
| CC[C@H]1CC2C[C@H]3c4[nH]c5ccc(O)cc5c4CCN(C2)C13 [noribogaine, Noribogaine] | serious cardiac and CNS adverse effects | shortens the QTc interval | increase QTc |  |  |  |  |  |  |  |  |  |
| C=C(C)[C@@H]1CCC(C)=C[C@H]1c1c(O)cc(CCCCC)cc1O [CBD, cannabidiol] |  |  |  | concentration-dependently decreased | binds very weakly | promoted | blocked by CB(1) and/or CB(2) antagonists | well tolerated without side effects | does not induce psychoactive or cognitive effects | able to prevent | able to prevent | concentration-dependently decreased |
| CCCCCCC(C)(C)c1cc(OC)c([C@@H]2C=C(CO)[C@@H]3C[C@H]2C3(C)C)c(OC)c1 [HU-308] |  |  |  | without effect |  | induced | blocked by a CB(2) antagonist only |  |  |  |  | without effect |
| Cc1c(C(=O)c2cccc3ccccc23)c2cccc3c2n1[C@H](CN1CCOCC1)CO3 [WIN 55,212-2, (R)-(+)-[2,3-dihydro-5-methyl-3-(4-morpholinylmethyl)pyrrolo-[1,2,3-d,e]-1,4-benzoxazin-6-yl]-1-naphthalenyl-methanone] |  |  |  | concentration-dependently decreased |  | promoted | blocked by CB(1) and/or CB(2) antagonists |  |  | able to prevent | able to prevent | concentration-dependently decreased |
